{"source": "patent US20170334919A1", "about": "“2-((4-AMINO-3-(3-FLUORO-5-HYDROXYPHENYL)-1H-PYRAZOLO[3,4-D]PYRIMIDIN-1 -YL)METHYL)-3-(2-(TRIFLUORO-MET HYL)BENZYL)QUINAZOLIN-4(3H)-ONE DERIVATIVES AND THEIR USE AS PHOSPHOINOSITIDE 3-KINASE INHIBITORS” (RESPIVERT LTD., priority 2013, published 2017)", "key": {"[1]": {"test_system": "PI3K δ (Akt phosphorylation in d-U937 cells)", "assay": "PI3K δ cell based assay: H2O2-induced Akt phosphorylation in d-U937 cells", "conditions": "Homo sapiens, dU937; inhibition of induced Akt phosphorylation; read-out: Cellular Activity REC50 values in d-U937 cells, H2O2 stimulus", "procedure": "As a means of assessing PI3K δ activation in response to stimuli, the phosphorylation status of the protein, Akt, a downstream product of PI3Kδ, signaling was determined.\n(§1) U937 cells, obtained from a human, leukemic, monocyte lymphoma cell line, were differentiated to macrophage-type cells by incubation with PMA (100 ng/mL) for 48 to 72 hr. Cells were then pre-incubated with either the test compound or vehicle for 2 hr and were then stimulated briefly by exposure to H2O2 (10 mM, 5-7 min) and the reaction stopped by replacing the media with 4% formaldehyde solution. […] After washing with buffer (PBS containing 0.1% Triton X-100), cells were incubated with an HRP-conjugated secondary antibody (Dako) and the resultant signal was determined colorimetrically (OD: 450 nm with a reference wavelength of 655 nm) using TMB substrate (substrate reagent pack supplied by R&D Systems, Inc.).\nThis reaction was stopped by the addition of H2SO4 solution (100 μL). […] After washing with buffer (PBS containing 0.1% Triton X-100) 1% SDS (100 μL) was added to each well and the plates were shaken lightly for 1 hr prior to measuring the absorbance at 595 nm (Varioskan® Flash, Thermo-Fisher Scientific). The measured OD450-655 readings were corrected for cell number by dividing the OD450-655 by the D595 readings. The ratio of pAkt signal to total Akt signal was used to quantitate the extent of PI3K δ activation. […]"}, "[2]": {"test_system": "PI3K γ (Akt phosphorylation in d-U937 cells)", "assay": "PI3K γ cell based assay: MCP-1-induced Akt phosphorylation in d-U937 cells", "conditions": "Homo sapiens, dU937; inhibition of induced Akt phosphorylation; read-out: Cellular Activity REC50 values in d-U937 cells, MCP-1 stimulus", "procedure": "As a means of assessing the activation of PI3K γ in response to stimuli, the phosphorylation status of the protein, Akt, a downstream product of PI3K γ signalling, was determined following stimulation with MCP-1.\nas §1, with “cells” for “cells, obtained from a human, leukemic, monocyte lymphoma cell line,”, “with MCP-1” for “by exposure to H2O2”, “nM, 1” for “mM, 5-7”\nThis reaction was stopped by addition of 1N H2SO4 solution (100 μL). […] After washing with buffer (PBS containing 0.1% Triton X-100) 1% SDS (100 μL) was added to each well and the plates were shaken lightly for 1 hr prior to measuring the absorbance at 595 nm (Varioskan® Flash, Thermo-Fisher Scientific). The measured OD450-655 readings were corrected for cell number by dividing the OD450-655 by the OD595 readings. The ratio of pAkt signal to total Akt signal was used to quantitate the extent of PI3K γ activation. […]"}}, "data": [{"smiles": "COCCOCCOCC#Cc1cccc2nc(Cn3nc(-c4cc(O)cc(F)c4)c4c(N)ncnc43)n(Cc3ccccc3C(F)(F)F)c(=O)c12", "note": "[Compound (I), 2-((4-Amino-3-(3-fluoro-5-hydroxyphenyl)-1H-pyrazolo[3,4-d]pyrimidin-1-yl)methyl)-5-(3-(2-(2-methoxyethoxy)ethoxy)prop-1-yn-1-yl)-3-(2-(trifluoromethyl)benzyl)quinazolin-4(3H)-one]", "values": [{"measurement": "EC50", "setting": "[1]", "result": 7.4, "unit": "nM"}, {"measurement": "EC50", "setting": "[2]", "result": 16.5, "unit": "nM"}]}]}
